Experimental data from the NIST ThermoML archive (doi:10.1016/j.jct.2008.07.024).
“And” between values parts separate entries of the source, which are not always exact repeats. Equal values may be shown once. Numbers after ± are expanded uncertainties.

Details: Liquid, Closed cell (Static) method

vapor or sublimation pressure (303.15 K) [kPa] | vapor or sublimation pressure (313.15 K) | vapor or sublimation pressure (323.15 K) | Structure (SMILES)
0.45 ± 0.02 | 0.87 ± 0.02 kPa and 0.89 ± 0.02 kPa | 1.59 ± 0.02 kPa and 1.61 ± 0.02 kPa | CCCOCCO [2-propoxyethanol]
7.92 ± 0.03 | 12.24 ± 0.03 kPa | 18.91 ± 0.04 kPa | CCCCCCC [heptane]
25.16 ± 0.05 | 37.42 ± 0.07 kPa | 54.11 ± 0.1 kPa | CCCCCC [hexane]
